Here are results for ten compounds from ChEMBL document CHEMBL2029203, “Discovery of potent antimicrobial peptide analogs of Ixosin-B” (Bioorg Med Chem Lett, 2012).

Data set [1] concerns Escherichia coli. Kind of data set: Antimicrobial activity against Escherichia coli ATCC 25922 after 18 to 20 hrs by spectrophotometry. The data set is classed as functional.
The subject of data set [2] is Pseudomonas aeruginosa. As to the kind of experiment: Antimicrobial activity against Pseudomonas aeruginosa ATCC 27853 after 18 to 20 hrs by spectrophotometry. The data set is classed as functional.
Data set [3] has as its system Staphylococcus aureus. Kind of data set: Antimicrobial activity against Staphylococcus aureus ATCC 25923 after 18 to 20 hrs by spectrophotometry. Type of data set: functional.
Data set [4] can be described thus: Toxicity against human erythrocytes assessed as hemolysis at 100 uM after 1 hr by spectrophotometry. Type of data set: cell-based, Erythrocyte. The note with it: read-out: Activity.
The subject of data set [5] is Candida albicans. Kind of data set: Antimicrobial activity against Candida albicans. Type of data set: functional.
Data set [6] relates to Staphylococcus aureus. Kind of data set: Antimicrobial activity against Staphylococcus aureus. Type of data set: functional.
For data set [7], the system named is Escherichia coli. As to the kind of experiment: Antimicrobial activity against Escherichia coli. Type of data set: functional.

Molecules are shown by their SMILES. In brackets after ≈: the same amount, converted by molar mass. Residues, ends and D or L forms follow the SMILES beside them.

As to `CC(C)C[C@H](NC(=O)[C@H](CO)NC(=O)[C@@H](N)CCCCN)C(=O)N[C@H](C(=O)N[C@@H](CCCNC(=N)N)C(=O)N[C@@H](CCCNC(=N)N)C(=O)N[C@@H](Cc1c[nH]c2ccccc12)C(=O)N[C@@H](CCCNC(=N)N)C(=O)N[C@@H](CO)C(=O)N[C@@H](CCCNC(=N)N)C(=O)N[C@@H](Cc1c[nH]c2ccccc12)C(N)=O)C(C)C` (H-KSLVRRWRSRW-NH2), the results for the MIC in data set [1], in data set [2] and in data set [3] were 30 µM (≈ 45.9 µg/mL), 40 µM (≈ 61.2 µg/mL) and 30 µM (≈ 45.9 µg/mL), respectively. The hemolysis at 1 h, 100 µM in data set [4] was 0%.

Regarding `CC(C)[C@H](NC(=O)[C@H](CC(=O)O)NC(=O)[C@H](CO)NC(=O)[C@H](CCCCN)NC(=O)CNC(=O)[C@H](CO)NC(=O)[C@H](CO)NC(=O)[C@H](Cc1cnc[nH]1)NC(=O)[C@@H](N)CCC(N)=O)C(=O)N[C@@H](CCCNC(=N)N)C(=O)N[C@@H](CCCNC(=N)N)C(=O)N[C@@H](Cc1c[nH]c2ccccc12)C(N)=O` (H-QHSSGKSDVRRW-NH2), the MIC in data set [1], in data set [2] and in data set [3] was more than 100 µM each time.

`CC(C)C[C@H](NC(=O)[C@H](Cc1c[nH]c2ccccc12)NC(=O)[C@@H](N)CCCCN)C(=O)N[C@@H](CCCNC(=N)N)C(=O)N[C@@H](CCCNC(=N)N)C(=O)N[C@H](C(=O)N[C@@H](Cc1c[nH]c2ccccc12)C(=O)N[C@@H](CCCNC(=N)N)C(=O)N[C@@H](Cc1c[nH]c2ccccc12)C(=O)N[C@@H](Cc1c[nH]c2ccccc12)C(=O)N[C@@H](CCCNC(=N)N)C(N)=O)C(C)C` (H-KWLRRVWRWWR-NH2): the figures for the MIC in data set [1], in data set [2] and in data set [3] were 15 µM (≈ 25.9 µg/mL), 20 µM (≈ 34.5 µg/mL) and 2.5 µM (≈ 4.32 µg/mL), respectively. Moreover, the hemolysis at 1 h, 100 µM in data set [4] came out at 100%.

Turning to `CC[C@H](C)[C@H](NC(=O)CNC(=O)[C@H](CO)NC(=O)[C@H](CCCNC(=N)N)NC(=O)[C@@H](NC(=O)CNC(=O)[C@H](Cc1c[nH]c2ccccc12)NC(=O)[C@H](CC(C)C)NC(=O)[C@H](CC(=O)O)NC(=O)[C@@H](NC(=O)[C@H](CCCCN)NC(=O)[C@H](CC(C)C)NC(=O)[C@@H](N)CCC(N)=O)C(C)C)[C@@H](C)O)C(N)=O` (H-QLKVDLWGTRSGI-NH2), the MIC in data set [1], in data set [2] and in data set [3] was more than 100 µM in each case.

`CC1(C)S[C@@H]2[C@H](NC(=O)Cc3ccccc3)C(=O)N2[C@H]1C(=O)O` [PENICILLIN G]: the MIC is more than 100 µM in data set [1], more than 100 µM in data set [2] and 0.5 µM (≈ 0.167 µg/mL) in data set [3].

As to `CC[C@H](C)[C@H](NC(=O)CNC(=O)[C@H](CO)NC(=O)[C@H](CCCNC(=N)N)NC(=O)[C@@H](NC(=O)CNC(=O)[C@H](Cc1c[nH]c2ccccc12)NC(=O)[C@H](CC(C)C)NC(=O)[C@H](CC(=O)O)NC(=O)[C@@H](NC(=O)[C@H](CCCCN)NC(=O)[C@H](CC(C)C)NC(=O)[C@@H](N)CCC(N)=O)C(C)C)[C@@H](C)O)C(=O)N[C@@H](CCC(N)=O)C(=O)N1CCC[C@H]1C(=O)N[C@@H](CCC(=O)O)C(=O)N[C@@H](CCC(N)=O)C(=O)N[C@@H](Cc1cnc[nH]1)C(=O)N[C@@H](CO)C(=O)N[C@@H](CO)C(=O)NCC(=O)N[C@@H](CCCCN)C(=O)N[C@@H](CO)C(=O)N[C@@H](CC(=O)O)C(=O)N[C@H](C(=O)N[C@@H](CCCNC(=N)N)C(=O)N[C@@H](CCCNC(=N)N)C(=O)N[C@@H](Cc1c[nH]c2ccccc12)C(=O)N[C@@H](CCCNC(=N)N)C(=O)N[C@@H](CO)C(=O)N[C@@H](CCCNC(=N)N)C(=O)N[C@@H](Cc1ccc(O)cc1)C(N)=O)C(C)C` [Ixosin-B-amide] (H-QLKVDLWGTRSGIQPEQHSSGKSDVRRWRSRY-NH2), the MIC in data set [1] was 80 µM (≈ 305 µg/mL); in data set [2] it was more than 80 µM; in data set [3] it was 80 µM (≈ 305 µg/mL); in data set [5] it was 7.5 µg/mL (≈ 1.97 µM); in data set [6] it was 2.5 µg/mL (≈ 0.656 µM); in data set [7], 15 µg/mL (≈ 3.93 µM). In addition, the hemolysis at 1 h, 100 µM in data set [4] turned out to be 0%.

In the case of `CC(C)C[C@H](NC(=O)[C@H](CCCNC(=N)N)NC(=O)[C@@H](N)CCCCN)C(=O)N[C@@H](CCCNC(=N)N)C(=O)N[C@@H](CCCNC(=N)N)C(=O)N[C@H](C(=O)N[C@@H](Cc1c[nH]c2ccccc12)C(=O)N[C@@H](CCCNC(=N)N)C(=O)N[C@@H](CCCNC(=N)N)C(=O)N[C@@H](Cc1c[nH]c2ccccc12)C(=O)N[C@@H](CCCNC(=N)N)C(N)=O)C(C)C` (H-KRLRRVWRRWR-NH2), the MIC in data set [1] was 30 µM (≈ 50 µg/mL); in data set [2], 20 µM (≈ 33.3 µg/mL); in data set [3], 5 µM (≈ 8.34 µg/mL). Besides, the hemolysis at 1 h, 100 µM in data set [4] was determined as 3%.

With `CC(C)C[C@H](NC(=O)[C@H](CO)NC(=O)[C@@H](N)CCCCN)C(=O)N[C@@H](CCCNC(=N)N)C(=O)N[C@@H](CCCNC(=N)N)C(=O)N[C@H](C(=O)N[C@@H](Cc1c[nH]c2ccccc12)C(=O)N[C@@H](CCCNC(=N)N)C(=O)N[C@@H](CO)C(=O)N[C@@H](Cc1c[nH]c2ccccc12)C(=O)N[C@@H](CCCNC(=N)N)C(N)=O)C(C)C` (H-KSLRRVWRSWR-NH2), the MIC was found to be 30 µM (≈ 45.9 µg/mL) in data set [1], 40 µM (≈ 61.2 µg/mL) in data set [2] and 60 µM (≈ 91.7 µg/mL) in data set [3]. In addition, in data set [4], the hemolysis at 1 h, 100 µM was 0%.

As for `CC[C@H](C)[C@H](NC(=O)CNC(=O)[C@H](CO)NC(=O)[C@H](CCCNC(=N)N)NC(=O)[C@@H](NC(=O)CNC(=O)[C@H](Cc1c[nH]c2ccccc12)NC(=O)[C@@H](N)CC(C)C)[C@@H](C)O)C(=O)N[C@@H](CCC(N)=O)C(=O)N1CCC[C@H]1C(=O)N[C@@H](CCC(=O)O)C(=O)N[C@@H](CCC(N)=O)C(=O)N[C@@H](Cc1cnc[nH]1)C(N)=O` (H-LWGTRSGIQPEQH-NH2), the MIC in data set [1], in data set [2] and in data set [3] was more than 100 µM throughout.

On to `CC(C)[C@H](NC(=O)[C@H](CC(=O)O)NC(=O)[C@H](CO)NC(=O)[C@@H](N)CCCCN)C(=O)N[C@@H](CCCNC(=N)N)C(=O)N[C@@H](CCCNC(=N)N)C(=O)N[C@@H](Cc1c[nH]c2ccccc12)C(=O)N[C@@H](CCCNC(=N)N)C(=O)N[C@@H](CO)C(=O)N[C@@H](CCCNC(=N)N)C(=O)N[C@@H](Cc1ccc(O)cc1)C(N)=O` (H-KSDVRRWRSRY-NH2), for which the MIC in data set [1], in data set [2] and in data set [3] was more than 100 µM in each case.

For orientation: MIC means the lowest concentration found to suppress growth. Low values mean a more susceptible organism, high ones a less susceptible organism.
